Assay results: publication PMC10730845, “Endoxifen downregulates AKT phosphorylation through protein kinase C beta 1 inhibition in ERα+ breast cancer” (NPJ Breast Cancer, 2023)

What was measured:
[1] = ERα+ breast cancer patients receiving 20 mg/day TAM monotherapy; cited from earlier work
[2] = test system: AKT phosphorylation (pAKT^Ser473, pAKT^Thr308, p-AKT substrates) in MCF7AC1 cells; test: Immunoblot of AKT signaling and PARP cleavage, MCF7AC1; assay type: cell-based, human; conditions: for Effect on insulin-stimulated AKT^Ser473 and AKT^Thr308 phosphorylations: 100 nM insulin 1 h, 0.1 µM
Description: The ENDX hydrochloride utilized in this study was synthesized in collaboration between Mayo Clinic and National Institute of Health (NIH). Estrogen deprived MCF7AC1 were treated with vehicle control or ENDX (National Cancer Institute) for 24 h. […] For the insulin (Sigma-Aldrich, #I0516) experiments, MCF7AC1 and T47D cells were maintained in serum-free medium for 24 h prior to pretreatment with vehicle control or drugs for 2 h followed by treatment with 100 nM insulin for 1 h.
(§1) Protein lysates were prepared using the RIPA lysis buffer system (ChemCruz #sc-24948) and quantified using the DC^TM Protein Assay reagents (Bio-Rad #5000112). Equal amounts of protein lysates were separated on 10% Criterion gels (Bio-Rad #3450112), transferred to PVDF membranes (Bio-Rad #1620177), blocked in TBST-5% milk and probed with primary antibodies listed in Supplementary Table 5, at the indicated dilutions. Membranes were incubated with HRP-conjugated anti-rabbit (CST #7074) or anti-mouse (CST #7076) secondary antibodies and visualized using chemiluminescent West Pico (Thermo Scientific #34580) or West Femto (Thermo Scientific #34096) reagents and a Li-Cor Odyssey® XF imager. Protein lysates from the MCF7AC1 xenograft model were obtained from a previous study. Quantitation of the protein bands signal intensity was performed using the NIH ImageJ image analysis software (https://imagej.nih.gov/ij///index.html). For the quantitation of the phospho protein levels, we first normalized total protein levels to β-actin loading control and used these values to normalize the phospho protein levels and compared change in protein expression levels relative to vehicle control normalized to 1.0. For the quantitation of total protein levels, we normalized the total protein levels to β-actin and compared change in expression levels relative to vehicle control normalized to 1.0. All blots were processed in parallel and derived from the same experiments. Unprocessed immunoblot images are provided in Supplementary Figs. 9–13.

MCF7AC1 cells [3] = test: IncuCyte Annexin V apoptosis assay, MCF7AC1; assay type: cell-based, human; conditions: for Effect on apoptosis: CSS medium, 48 h, ENDX 5 µM, TAM 0.1 µM, ICI 0.1 µM
Description: (§2) MCF7AC1 and T47D-LTED cells were plated at a density of 2000 cells per well in CSS medium for 24 h. Cells were then co-treated for 48 h with vehicle or drug, IncuCyte Annexin V green reagent (#4642, 1:300), an early-stage apoptosis marker, and IncuCyte NucLight rapid red reagent (#4717, 1:500), a dye that stains all cell nuclei red, in CSS medium. MCF7AC1^caAKT cells were plated at a cell density of 2000 cells per well in CSS medium in the absence or presence of cumate for 48 h and then co-treated with vehicle or drug, Annexin V green and NucLight rapid red reagents in the absence or presence of cumate for an additional 48 h in CSS medium.

PKCβ1 in MCF7AC1 cells [4] = test: Immunoblot of PKCβ1 and pPKCβ1^Ser661, MCF7AC1; assay type: cell-based, human; conditions: serum starved; for Effect on PKCβ1 total protein in insulin treated cells: 100 nM insulin 1 h, ENDX 0.01, 0.1, 5 µM, TAM 0.1 µM, ICI 0.1 µM
Description: (§3) The ENDX hydrochloride utilized in this study was synthesized in collaboration between Mayo Clinic and National Institute of Health (NIH). Estrogen deprived MCF7AC1 were treated with vehicle control or ENDX (National Cancer Institute) for 24 h. For the phorbol 12-myristate 13-acetate (PMA) (LC Laboratories, #P-1680) experiments, MCF7AC1 cells were maintained in serum-free medium for 24 h prior to pretreatment with vehicle or ENDX for 2 h followed by treatment with 20 or 200 nM PMA for 20 min. For the insulin (Sigma-Aldrich, #I0516) experiments, MCF7AC1 and T47D cells were maintained in serum-free medium for 24 h prior to pretreatment with vehicle control or drugs for 2 h followed by treatment with 100 nM insulin for 1 h.
as §1

[5] = test system: AKT phosphorylation in T47D cells; test: Immunoblot of AKT phosphorylation, serum starved T47D; assay type: cell-based, human; conditions: 0.1 µM
Description: as §3
as §1, with “Protein lysates from the MCF7AC1 xenograft model were obtained from a previous study.” left out, “All blots were processed in parallel and derived from the same experiments. Unprocessed immunoblot images are provided in Supplementary Figs. 9–13.” left out

[6] = test system: AKT^Ser473 phosphorylation in T47D-LTED cells; test: Immunoblot of pAKT^Ser473, T47D-LTED; assay type: cell-based, human; conditions: CSS medium, 24 h; 1 and 5 µM, but not 0.1 µM
Description: as §1, with “All blots were processed in parallel and derived from the same experiments. Unprocessed immunoblot images are provided in Supplementary Figs. 9–13.” left out

T47D-LTED cells [7] = test: IncuCyte Annexin V apoptosis assay, T47D-LTED; assay type: cell-based, human; conditions: CSS medium; 1 and 5 µM, but not 0.1 µM
Description: as §2
(§4) Supplementary Figure 6. […] Cell viability is assessed by the crystal violet assay. b, MCF7AC1 cells were co-treated with vehicle control or 0.01, 0.1 and 5 µM MK-2206 and IncuCyte Annexin V green and NucLight rapid red reagents in CSS medi um for 48 hours. […]
Cells were plated at a density of 2000 cells per well. c, MCF7AC1 cells were treated with vehicle control or 0.01, 0.1 and 5 µM MK-2206 in CSS medium for 24 hours. […] Cell viability is assessed by the crystal violet assay. f, Parental T47D and T47D-LTED cells were processed for protein lysates. […] Percentage of cells undergoing apoptosis was calculated as mentioned in b. i, T47D-LTED cells were treated with vehicle control or 0.01, 0.1 and 5 µM MK -2206 in CSS medium for 24 hours . […]

T47D-LTED cells [8] = test: Crystal violet cell viability assay, T47D-LTED; assay type: cell-based, human; conditions: CSS medium, six days
Description: (§5) Cells were plated at a density of 2000 cells per well. Cell viability of (i) vehicle or drug treated MCF7AC1 and T47D-LTED cells in CSS medium, (ii) siNT or siPKCβ-transfected MCF7AC1 cells in CSS medium and (iii) T47D cells in FBS versus CSS medium were analyzed by crystal violet staining assay after 6 days of treatment or siRNA transfection as previously described. Cell viability was calculated as the average absorbance of the drug treated cells divided by the average absorbance of the vehicle treated cells × 100.
as §4
Cells were plated at a density of 2000 cells per well. c, MCF7AC1 cells were treated with vehicle control or 0.01, 0.1 and 5 µM MK-2206 in CSS medium for 24 hours. […] Cell viability is assessed by the crystal violet assay. f, Parental T47D and T47D-LTED cells were processed for protein lysates. […] Cell viability is assessed by the crystal violet assay. h, T47D-LTED cells were co-treated with vehicle control or 0.01, 0.1 and 5 µM MK -2206 and IncuCyte Annexin V green and NucLight rapid red reagents in CSS medium for 48 hours. […] Cell viability is assessed by the crystal violet assay. […]

MCF7AC1 cells [9] = test: Crystal violet cell viability / proliferation assay, MCF7AC1; assay type: cell-based, human; conditions: estrogen deprived (CSS), six days
Description: Fig. 1 Z-endoxifen (ENDX) effects on cell viability and apoptosis in estrogen deprived ERα+ /HER2- MCF7AC1 cells. a Cells grown in CSS medium were treated with vehicle control or the indicated ENDX concentrations for […]. Cell viability was assessed by the crystal violet assay. b Cells were co-treated with vehicle control or the indicated ENDX concentrations, IncuCyte Annexin V green and NucLight red reagents in CSS medium for 48 h. […] Data represents the mean of six wells per treatment performed as biological duplicates ± s.d. **p ≤ 0.01; ***p ≤ 0.001; ****p ≤ 0.0001 by one-way ANOVA.
as §5

[10] = test system: ERα+/HER2- metastatic breast cancer; conditions: cited from earlier work
PKCβ1 in MCF7AC1 cells [11] = test: Immunoblot of PKCβ1 and pPKCβ1^Ser661, MCF7AC1; assay type: cell-based, human; conditions: serum starved, 1 µM ENZA 2 h, 200 nM PMA 30 min

CC/C(=C(\c1ccc(O)cc1)c1ccc(OCCN(C)C)cc1)c1ccccc1 [4-HT]
Clinically attainable serum concentration [1]: < 5 nM

C[C@]12CC[C@@H]3c4ccc(O)cc4C[C@@H](CCCCCCCCC[S+]([O-])CCCC(F)(F)C(F)(F)F)[C@H]3[C@@H]1CC[C@@H]2O (stereo partly drawn) [ICI, ICI-182780, reference compound]
Effect on insulin-stimulated AKT^Ser473 and AKT^Thr308 phosphorylations ([2]; serum starved): failed to inhibit insulin-stimulated AKT^Ser473 and AKT^Thr308 phosphorylations
Effect on apoptosis (MCF7AC1 cells [3]): failed to induce apoptosis
Effect on PKCβ1 total protein in insulin treated cells (PKCβ1 in MCF7AC1 cells [4]): failed to diminish PKCβ1 total protein expression
Effect on insulin-stimulated AKT^Ser473 phosphorylation [5]: failing to block insulin-stimulated AKT^Ser473 phosphorylation

NC1(c2ccc(-c3nc4ccn5c(=O)[nH]nc5c4cc3-c3ccccc3)cc2)CCC1 [MK-2206, reference compound]
Concentrations at which AKT^Ser473 phosphorylation was reduced ([2]; estrogen deprived (CSS), 24 h): ≥ 1 µM
Concentration at which apoptosis (annexin V binding and PARP1 cleavage) was induced (MCF7AC1 cells [3]; estrogen deprived (CSS)): 5 µM
Concentrations reducing AKT^Ser473 phosphorylation [6]: ≥ 1 µM
Concentrations increasing apoptosis (annexin V staining, PARP cleavage) (T47D-LTED cells [7]): ≥ 1 µM
Concentration from which growth was significantly inhibited (T47D-LTED cells [8]): ≥ 0.1 µM
Concentrations at which growth was inhibited (MCF7AC1 cells [9]): ≥ 0.1 µM

CCCCCCCCCCCCCC(=O)O[C@@H]1[C@@H](C)[C@@]2(O)[C@@H](C=C(CO)C[C@]3(O)C(=O)C(C)=C[C@@H]23)[C@@H]2C(C)(C)[C@]12OC(C)=O [PMA, phorbol 12-myristate 13-acetate, reference compound]
Effect of PKC agonist on PKCβ1^Ser661 and AKT^Ser473 phosphorylation (PKCβ1 in MCF7AC1 cells [4]; 20 and 200 nM, 20 min): stimulated PKCβ1^Ser661 auto-phosphorylation and AKT^Ser473 phosphorylation

CC/C(=C(\c1ccccc1)c1ccc(OCCN(C)C)cc1)c1ccccc1 [TAM, tamoxifen, reference compound]
Effect on insulin-stimulated AKT^Ser473 and AKT^Thr308 phosphorylations ([2]; serum starved): failed to inhibit insulin-stimulated AKT^Ser473 and AKT^Thr308 phosphorylations
Effect on apoptosis (MCF7AC1 cells [3]): failed to induce apoptosis
PFS in CDK4/6 inhibitor naïve patients ([10]; CDK4/6i naïve): 2.4 m
Progression free survival (PFS) overall ([10]; women with ERα+/HER2- metastatic breast cancer progressed on endocrine therapy): 1.8 m
Effect on PKCβ1 total protein in insulin treated cells (PKCβ1 in MCF7AC1 cells [4]): failed to diminish PKCβ1 total protein expression
Effect on insulin-stimulated AKT^Ser473 phosphorylation [5]: failing to block insulin-stimulated AKT^Ser473 phosphorylation

Cn1cc(C2=C(c3cn(C4CCN(Cc5ccccn5)CC4)c4ccccc34)C(=O)NC2=O)c2ccccc21 [enzastaurin]
Effect on PKCβ1 expression (PKCβ1 in MCF7AC1 cells [11]): neither impacted the expression of PKCβ1
Effect on PMA-stimulated PKCβ1^Ser661 phosphorylation (PKCβ1 in MCF7AC1 cells [11]): reduced PKCβ1^Ser661 phosphorylation

Insulin: known activator of AKT^Ser473 phosphorylation (Sigma-Aldrich)
Effect on AKT^Ser473 phosphorylation ([2]; serum starved, 100 nM, 1 h): robustly stimulated AKT^Ser473 phosphorylation
